Source: ChEMBL document CHEMBL4393730, “Thiazolidinedione and thiazole derivatives potentiate norfloxacin activity against NorA efflux pump over expression in Staphylococcus aureus 1199B strains” (Bioorg Med Chem, 2019)

Tests used:
[1] = Cytotoxicity against mouse L929 cells assessed as cell growth inhibition at 50 ug/ml measured after 72 hrs by MTT method relative to control; assay type: cell-based; conditions: read-out: GI
Staphylococcus aureus [2] = assay: Antibacterial activity against wild type Staphylococcus aureus 1199 devoid of norA efflux pump assessed as reduction in norfloxacin MIC measured after 24 hrs by broth microdilution method relative to norfloxacin; assay type: functional
Staphylococcus aureus [3] = assay: Antibacterial activity against multidrug resistant Staphylococcus aureus 1199B mutant strain carrying NorA efflux pump assessed as growth inhibition measured after 24 hrs by broth microdilution method; assay type: functional
Staphylococcus aureus [4] = assay: Antibacterial activity against wild type Staphylococcus aureus 1199 devoid of NorA efflux pump measured after 24 hrs by broth microdilution method; assay type: functional; conditions: Staphylococcus aureus, 1199, 24 h
[5] = molecular target: T1, Quinolone resistance protein NorA (Staphylococcus aureus) (UniProt P0A0J7); assay: Inhibition of NorA efflux pump in multidrug resistant Staphylococcus aureus 1199B mutant assessed as norfloxacin MIC measured after 24 hrs by broth microdilution method (reference value: 256 +/- 1 microg/ml)
T1 sequence (whole entry): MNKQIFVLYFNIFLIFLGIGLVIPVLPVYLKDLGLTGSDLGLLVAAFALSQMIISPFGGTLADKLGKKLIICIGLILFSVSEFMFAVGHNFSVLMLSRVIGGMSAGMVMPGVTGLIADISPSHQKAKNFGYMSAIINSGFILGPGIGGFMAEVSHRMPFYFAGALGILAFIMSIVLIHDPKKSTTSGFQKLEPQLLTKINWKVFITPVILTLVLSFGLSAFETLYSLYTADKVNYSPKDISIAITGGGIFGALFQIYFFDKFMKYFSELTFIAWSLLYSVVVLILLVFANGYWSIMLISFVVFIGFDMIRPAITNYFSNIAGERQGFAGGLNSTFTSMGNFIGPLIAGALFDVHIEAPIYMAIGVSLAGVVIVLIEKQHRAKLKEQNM

Staphylococcus aureus [6] = assay: Antibacterial activity against wild type Staphylococcus aureus 1199 devoid of norA efflux pump assessed as norfloxacin MIC measured after 24 hrs by broth microdilution method (reference value: 64 +/- 1 microg/ml); assay type: functional; conditions: Staphylococcus aureus, 1199, 24 h
[7] = molecular target: T1, Quinolone resistance protein NorA (Staphylococcus aureus); assay: Inhibition of NorA efflux pump in multidrug resistant Staphylococcus aureus 1199B mutant assessed as reduction in norfloxacin MIC measured after 24 hrs by broth microdilution method relative to norfloxacin

With `COc1ccc(Br)cc1/C=N/Nc1nc(-c2ccc(Cl)cc2)cs1` the inhibition at 72 h, 50 ug/ml [1] was 30.1%, the “fold change (FC)” value (Staphylococcus aureus [2]) was 3 and the MIC (Staphylococcus aureus [3]) was > 1020 µg/mL. The MIC (Staphylococcus aureus [4]) was > 1020 µg/mL, the MIC [5] was 40.3 µg/mL and the MIC (Staphylococcus aureus [6]) was 0.63 µg/mL. The fold change (FC) [7] was 3.

In the case of `COc1ccc(Br)cc1/C=N/Nc1nc(-c2ccccc2)cs1`, the inhibition at 72 h, 50 ug/ml [1] is reported as 24.4%, the “fold change (FC)” value (Staphylococcus aureus [2]) is reported as 3 and the MIC (Staphylococcus aureus [3]) is reported as > 1020 µg/mL. The MIC (Staphylococcus aureus [4]) was > 1020 µg/mL, the MIC [5] was 50.8 µg/mL and the MIC (Staphylococcus aureus [6]) was 0.5 µg/mL. It also gave a fold change (FC) [7] of 3.

In the case of `COc1ccc(Br)cc1/C=N/Nc1nc(-c2ccc(-c3ccccc3)cc2)cs1`, the inhibition at 72 h, 50 ug/ml [1] is reported as 15%, the MIC (Staphylococcus aureus [3]) is reported as > 1020 µg/mL and the MIC (Staphylococcus aureus [4]) is reported as > 1020 µg/mL. The MIC [5] was 1020 µg/mL and the MIC (Staphylococcus aureus [6]) was 1020 µg/mL.

With `COc1ccc(Br)cc1/C=N/Nc1nc(-c2ccc(Br)cc2)cs1` the inhibition at 72 h, 50 ug/ml [1] was 17.3%, the “fold change (FC)” value (Staphylococcus aureus [2]) was 3 and the MIC (Staphylococcus aureus [3]) was > 1020 µg/mL. For the same compound, the MIC (Staphylococcus aureus [4]) was > 1020 µg/mL, the MIC [5] was 64 µg/mL and the MIC (Staphylococcus aureus [6]) was 16 µg/mL. For the same compound, the fold change (FC) [7] was 3.

With `COc1ccc(Br)cc1/C=N/Nc1nc(-c2ccc([N+](=O)[O-])cc2)cs1` the inhibition at 72 h, 50 ug/ml [1] was 39.9%, the MIC (Staphylococcus aureus [3]) was > 1020 µg/mL and the MIC (Staphylococcus aureus [4]) was > 1020 µg/mL. It also gave an MIC [5] of 128 µg/mL and an MIC (Staphylococcus aureus [6]) of 5 µg/mL.

With `COc1ccc(Br)cc1/C=N/Nc1nc(-c2ccc(F)cc2)cs1` the inhibition at 72 h, 50 ug/ml [1] was 31.2%, the MIC (Staphylococcus aureus [3]) was > 1020 µg/mL and the MIC (Staphylococcus aureus [4]) was > 1020 µg/mL. The MIC [5] was 1020 µg/mL and the MIC (Staphylococcus aureus [6]) was 1020 µg/mL.
